Laboratory results reported in the supplement of paper PMC13380429.

Assays:
[1] = system: A549-ACE2 infected with SARS-CoV-2; experiment: cell count relative to DMSO; higher = less toxic; details: 24 h
[2] = system: A549-ACE2; experiment: drug-induced phospholipidosis relative to tamoxifen; higher = more phospholipidosis
[3] = system: A549-ACE2 infected with SARS-CoV-2; experiment: SARS-CoV-2 infection rate relative to DMSO; higher = more infection; details: 24 h
[4] = system: Vero E6; experiment: drug sensitivity score (DSS) for viability; higher = more toxic; extreme values may be limits of the assay; details: 72 h
[5] = system: U2OS; experiment: as above; details: 72 h
[6] = system: Calu-3; experiment: as above; details: 72 h
[7] = system: Caco-2; experiment: as above; details: 72 h
[8] = system: HepG2; experiment: as above; details: 72 h
[9] = system: Vero E6; experiment: cell viability relative to DMSO; higher = less toxic; details: 72 h
[10] = system: U2OS; experiment: as above; details: 72 h
[11] = system: Calu-3; experiment: as above; details: 72 h
[12] = system: Caco-2; experiment: as above; details: 72 h
[13] = system: HepG2; experiment: as above; details: 72 h
[14] = system: Vero E6; experiment: relative viability EC50 (midpoint between 100% and the lowest measured viability); higher = less toxic; details: 72 h
[15] = system: U2OS; experiment: as above; details: 72 h
[16] = system: Calu-3; experiment: as above; details: 72 h
[17] = system: Caco-2; experiment: as above; details: 72 h
[18] = system: HepG2; experiment: as above; details: 72 h
[19] = system: A549-ACE2 infected with SARS-CoV-2; experiment: morphology score (similarity to uninfected cells); higher = more like uninfected cells; details: 24 h
[20] = system: A549-ACE2; experiment: phospholipidosis EC50; higher = less potent phospholipidosis inducer

Work on Cc1ccc(-n2nc(C(C)(C)C)cc2NC(=O)Nc2ccc(OCCN3CCOCC3)c3ccccc23)cc1 [doramapimod] yielded a cell count ([1]; 0.3 µM) of 91%, a cell count ([1]; 3 µM) of 105% and a cell count ([1]; 10 µM) of 115%. It also gave a cell count ([1]; 30 µM) of 70%, a drug-induced phospholipidosis ([2]; 0.3 µM, 24 h) of -1.22% and a drug-induced phospholipidosis ([2]; 0.3 µM, 48 h) of -2.88%. For the same compound, the drug-induced phospholipidosis ([2]; 0.3 µM, 72 h) was -1.89%, the drug-induced phospholipidosis ([2]; 0.833333 µM, 24 h) was -3.86% and the drug-induced phospholipidosis ([2]; 0.833333 µM, 48 h) was -4.62%. For the same compound, the drug-induced phospholipidosis ([2]; 0.833333 µM, 72 h) was -3.86%, the drug-induced phospholipidosis ([2]; 3.33333 µM, 24 h) was -2.5% and the drug-induced phospholipidosis ([2]; 3.33333 µM, 48 h) was -1.1%. For the same compound, the drug-induced phospholipidosis ([2]; 3.33333 µM, 72 h) was 1.71%, the drug-induced phospholipidosis ([2]; 6.66667 µM, 24 h) was 7.51% and the drug-induced phospholipidosis ([2]; 6.66667 µM, 48 h) was 6.99%. For the same compound, the drug-induced phospholipidosis ([2]; 6.66667 µM, 72 h) was 12.1%, the drug-induced phospholipidosis ([2]; 10 µM, 24 h) was 20.8% and the drug-induced phospholipidosis ([2]; 10 µM, 48 h) was 15.5%. The drug-induced phospholipidosis ([2]; 10 µM, 72 h) was 19.8%, the drug-induced phospholipidosis ([2]; 30 µM, 24 h) was 66.3% and the SARS-CoV-2 infection rate ([3]; 0.3 µM) was 105%. The SARS-CoV-2 infection rate ([3]; 3 µM) was 68%, the SARS-CoV-2 infection rate ([3]; 10 µM) was 72% and the SARS-CoV-2 infection rate ([3]; 30 µM) was 16%. The drug sensitivity score [4] was 0, the drug sensitivity score [5] was 0 and the drug sensitivity score [6] was 0. The drug sensitivity score [7] was 0.3, the drug sensitivity score [8] was 0 and the cell viability ([9]; 1 nM) was 108%. It also gave a cell viability ([9]; 10 nM) of 95.2%, a cell viability ([9]; 100 nM) of 95.5% and a cell viability ([9]; 1000 nM) of 95.7%. The cell viability ([9]; 10000 nM) was 104%, the cell viability ([10]; 1 nM) was 98.6% and the cell viability ([10]; 10 nM) was 104%. For the same compound, the cell viability ([10]; 100 nM) was 91.6%, the cell viability ([10]; 1000 nM) was 93.7% and the cell viability ([10]; 10000 nM) was 95.6%. For the same compound, the cell viability ([11]; 1 nM) was 114%, the cell viability ([11]; 10 nM) was 97.3% and the cell viability ([11]; 100 nM) was 92.4%. The cell viability ([11]; 1000 nM) was 97.2%, the cell viability ([11]; 10000 nM) was 88.4% and the cell viability ([12]; 1 nM) was 93.8%. The cell viability ([12]; 10 nM) was 108%, the cell viability ([12]; 100 nM) was 89.3% and the cell viability ([12]; 1000 nM) was 90.9%. The cell viability ([12]; 10000 nM) was 93.6%, the cell viability ([13]; 1 nM) was 107% and the cell viability ([13]; 10 nM) was 105%. For the same compound, the cell viability ([13]; 100 nM) was 99.7%, the cell viability ([13]; 1000 nM) was 104% and the cell viability ([13]; 10000 nM) was 111%. For the same compound, the “relative viability EC50” value [14] was > 10 µM, the “relative viability EC50” value [15] was > 10 µM and the “relative viability EC50” value [16] was > 10 µM. For the same compound, the “relative viability EC50” value [17] was > 10 µM, the “relative viability EC50” value [18] was > 10 µM and the morphology score ([19]; 0.3 µM) was -0.27. It also gave a morphology score ([19]; 3 µM) of 0.36, a morphology score ([19]; 10 µM) of 0.7 and a morphology score ([19]; 30 µM) of 0.44.
CCCCc1oc2ccc(NS(C)(=O)=O)cc2c1C(=O)c1ccc(OCCCN(CCCC)CCCC)cc1 [dronedarone] gave a cell count ([1]; 0.1 µM) of 103%, a cell count ([1]; 0.3 µM) of 100% and a cell count ([1]; 1 µM) of 111%. The cell count ([1]; 3 µM) was 112%, the drug-induced phospholipidosis ([2]; 0.3 µM, 24 h) was 5.9% and the drug-induced phospholipidosis ([2]; 0.3 µM, 48 h) was 9.08%. The drug-induced phospholipidosis ([2]; 0.3 µM, 72 h) was 7.98%, the drug-induced phospholipidosis ([2]; 0.833333 µM, 24 h) was 23.1% and the drug-induced phospholipidosis ([2]; 0.833333 µM, 48 h) was 19%. For the same compound, the drug-induced phospholipidosis ([2]; 0.833333 µM, 72 h) was 17%, the drug-induced phospholipidosis ([2]; 3.33333 µM, 24 h) was 79.1% and the drug-induced phospholipidosis ([2]; 3.33333 µM, 48 h) was 96%. It also gave a drug-induced phospholipidosis ([2]; 3.33333 µM, 72 h) of 94.1%, a drug-induced phospholipidosis ([2]; 6.66667 µM, 24 h) of 94.6% and a drug-induced phospholipidosis ([2]; 6.66667 µM, 48 h) of 120%. For the same compound, the drug-induced phospholipidosis ([2]; 6.66667 µM, 72 h) was 122%, the drug-induced phospholipidosis ([2]; 10 µM, 24 h) was 47.9% and the drug-induced phospholipidosis ([2]; 30 µM, 24 h) was 35%. For the same compound, the SARS-CoV-2 infection rate ([3]; 0.1 µM) was 95%, the SARS-CoV-2 infection rate ([3]; 0.3 µM) was 94% and the SARS-CoV-2 infection rate ([3]; 1 µM) was 65%. It also gave an SARS-CoV-2 infection rate ([3]; 3 µM) of 13%, a drug sensitivity score [4] of 1.8 and a drug sensitivity score [5] of 4.1. For the same compound, the drug sensitivity score [6] was 5.1, the drug sensitivity score [7] was 2.8 and the drug sensitivity score [8] was 4.6. It also gave a cell viability ([9]; 1 nM) of 108%, a cell viability ([9]; 10 nM) of 105% and a cell viability ([9]; 100 nM) of 107%. It also gave a cell viability ([9]; 1000 nM) of 100%, a cell viability ([9]; 10000 nM) of 61.9% and a cell viability ([10]; 1 nM) of 100%. The cell viability ([10]; 10 nM) was 107%, the cell viability ([10]; 100 nM) was 98.1% and the cell viability ([10]; 1000 nM) was 102%. The cell viability ([10]; 10000 nM) was 23%, the cell viability ([11]; 1 nM) was 102% and the cell viability ([11]; 10 nM) was 108%. It also gave a cell viability ([11]; 100 nM) of 108%, a cell viability ([11]; 1000 nM) of 102% and a cell viability ([11]; 10000 nM) of 5.7%. For the same compound, the cell viability ([12]; 1 nM) was 101%, the cell viability ([12]; 10 nM) was 102% and the cell viability ([12]; 100 nM) was 94.7%. The cell viability ([12]; 1000 nM) was 102%, the cell viability ([12]; 10000 nM) was 44.6% and the cell viability ([13]; 1 nM) was 110%. It also gave a cell viability ([13]; 10 nM) of 101%, a cell viability ([13]; 100 nM) of 110% and a cell viability ([13]; 1000 nM) of 99.6%. The cell viability ([13]; 10000 nM) was 17.6%, the “relative viability EC50” value [15] was 3.29 µM and the “relative viability EC50” value [16] was 3.28 µM. The “relative viability EC50” value [17] was 3.38 µM, the “relative viability EC50” value [18] was 3.13 µM and the “phospholipidosis EC50” value ([20]; 24 h) was 926 nM. For the same compound, the “phospholipidosis EC50” value ([20]; 48 h) was 2180 nM, the “phospholipidosis EC50” value ([20]; 72 h) was 2340 nM and the morphology score ([19]; 0.1 µM) was 0.12. The morphology score ([19]; 0.3 µM) was 0.11, the morphology score ([19]; 1 µM) was 0.64 and the morphology score ([19]; 3 µM) was 0.81.
